The supplement of paper PMC10627819

Columns and labels:
S. aureus DSM 20231 [1] = assay: fitness (endpoint OD595 vs no drug) (fraction); higher = more growth
Procedure, shortened: (§1)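 At 37 °C, bacteria in TSB, LB Lennox or CY were grown in 384-well plates from a starting OD595 of 0.01. OD595 was measured every 30 min for 14 h, with the first reading used as background. Fitness is the optical density at the switch to stationary phase as a fraction of the robust mean of no-drug control wells, capped at 1.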

S. aureus Newman [2] = assay: as above
Procedure, shortened: as §1

S. pneumoniae D39V [3] = assay: as above
Procedure, shortened: as §1

B. subtilis 168 = assay: Bliss interaction score (quartile over a dose matrix) (fitness difference); higher = more antagonism (negative = synergy)
Procedure, shortened: (§2)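 Growth was read as OD595 when cultures entered stationary phase, and each value was divided by the plate's robust no-drug mean and capped at 1. This normalised ratio is the fitness value, and fitness for each single drug came from the combination data. The Bliss score subtracts the expected fitness, taken as the product, from the observed fitness and is given as quartiles across technical, biological and donor/recipient replicates.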

S. aureus DSM 20231 [4] = assay: as above
Procedure, shortened: as §2

S. aureus Newman [5] = assay: as above
Procedure, shortened: as §2

S. pneumoniae D39V [6] = assay: as above
Procedure, shortened: as §2
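Throughout, for Bliss interaction score (quartile over a dose matrix): first quartile when negative (synergy) and third quartile when positive (antagonism).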
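Throughout, for fitness (endpoint OD595 vs no drug): OD595 on entry to stationary phase over no-drug wells; at most 1.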

COc1ccc(C[C@H](N)C(=O)N[C@H]2[C@@H](O)[C@H](n3cnc4c(N(C)C)ncnc43)O[C@@H]2CO)cc1 [Puromycin] + Cn1nnc(-c2ccc(-c3ccc(N4C[C@H](CO)OC4=O)cc3F)cn2)n1 [Tedizolid]
fitness
Conditions | partner 0.03125 µg/mL | partner 0.0625 µg/mL | partner 0.125 µg/mL | partner 0.25 µg/mL
S. aureus DSM 20231 [1], first compound 0.39 µg/mL | – | 0.879 | 0.7 | 0.24
S. aureus DSM 20231 [1], first compound 0.78 µg/mL | – | 0.831 | 0.794 | 0.267
S. aureus DSM 20231 [1], first compound 1.56 µg/mL | – | 0.827 | – | 0.157
S. aureus Newman [2], first compound 0.39 µg/mL | – | 0.987 | 0.884 | 0.479
S. aureus Newman [2], first compound 0.78 µg/mL | – | 0.935 | 0.834 | 0.404
S. aureus Newman [2], first compound 1.56 µg/mL | – | 0.942 | 0.829 | 0.304
S. pneumoniae D39V [3], first compound 1 µg/mL | 0.967 | 0.966 | 0.787 | –
S. pneumoniae D39V [3], first compound 2 µg/mL | 0.958 | 0.935 | 0.78 | –
S. pneumoniae D39V [3], first compound 4 µg/mL | 0.819 | 0.828 | 0.756 | –

fitness, one replicate
Conditions | partner 0.0625 µg/mL | partner 0.125 µg/mL | partner 0.25 µg/mL | partner 0.5 µg/mL
S. aureus DSM 20231 [1], first compound 3.12 µg/mL | 0.503 | 0.148 | 0.0225 | –
S. aureus DSM 20231 [1], first compound 6.24 µg/mL | 0.224 | 0.0566 | 0.0172 | –
S. pneumoniae D39V [3], first compound 1 µg/mL | – | – | 0.652 | 0.184
S. pneumoniae D39V [3], first compound 2 µg/mL | – | – | 0.686 | 0.284
S. pneumoniae D39V [3], first compound 4 µg/mL | – | – | 0.499 | 0.234

Conditions | Bliss interaction score
B. subtilis 168 | -0.0598
S. aureus DSM 20231 [4] | -0.0959
S. aureus Newman [5] | 0.0352
S. pneumoniae D39V [6] | -0.1

Cc1ncc([N+](=O)[O-])n1CCO [Metronidazole] + CN[C@H](CC(C)C)C(=O)N[C@H]1C(=O)N[C@@H](CC(N)=O)C(=O)N[C@H]2C(=O)N[C@H]3C(=O)N[C@H](C(=O)N[C@H](C(=O)O)c4cc(O)cc(O)c4-c4cc3ccc4O)[C@H](O)c3ccc(c(Cl)c3)Oc3cc2cc(c3O[C@@H]2O[C@H](CO)[C@@H](O)[C@H](O)[C@H]2O[C@H]2C[C@](C)(N)[C@H](O)[C@H](C)O2)Oc2ccc(cc2Cl)[C@H]1O [Vancomycin]
Conditions | fitness
S. aureus DSM 20231 [1], first compound 0.625 µg/mL, partner 0.1875 µg/mL | ≥ 1
S. aureus DSM 20231 [1], first compound 0.625 µg/mL, partner 0.375 µg/mL | ≥ 1
S. aureus DSM 20231 [1], first compound 0.625 µg/mL, partner 0.75 µg/mL | ≥ 1
S. aureus DSM 20231 [1], first compound 1.25 µg/mL, partner 0.1875 µg/mL | ≥ 1
S. aureus DSM 20231 [1], first compound 1.25 µg/mL, partner 0.375 µg/mL | ≥ 1
S. aureus DSM 20231 [1], first compound 1.25 µg/mL, partner 0.75 µg/mL | ≥ 1
S. aureus DSM 20231 [1], first compound 2.5 µg/mL, partner 0.1875 µg/mL | ≥ 1
S. aureus DSM 20231 [1], first compound 2.5 µg/mL, partner 0.375 µg/mL | 1
S. aureus DSM 20231 [1], first compound 2.5 µg/mL, partner 0.75 µg/mL | 0.995
S. aureus Newman [2], first compound 0.625 µg/mL, partner 0.1875 µg/mL | 0.987
S. aureus Newman [2], first compound 0.625 µg/mL, partner 0.375 µg/mL | ≥ 1
S. aureus Newman [2], first compound 0.625 µg/mL, partner 0.75 µg/mL | ≥ 1
S. aureus Newman [2], first compound 1.25 µg/mL, partner 0.1875 µg/mL | 0.968
S. aureus Newman [2], first compound 1.25 µg/mL, partner 0.375 µg/mL | ≥ 1
S. aureus Newman [2], first compound 1.25 µg/mL, partner 0.75 µg/mL | 0.953
S. aureus Newman [2], first compound 2.5 µg/mL, partner 0.1875 µg/mL | ≥ 1
S. aureus Newman [2], first compound 2.5 µg/mL, partner 0.375 µg/mL | ≥ 1
S. aureus Newman [2], first compound 2.5 µg/mL, partner 0.75 µg/mL | ≥ 1
S. pneumoniae D39V [3], first compound 1.073 µg/mL, partner 0.125 µg/mL | ≥ 1
S. pneumoniae D39V [3], first compound 1.073 µg/mL, partner 0.5 µg/mL | 0.0194
S. pneumoniae D39V [3], first compound 1.25 µg/mL, partner 0.03125 µg/mL | 0.992
S. pneumoniae D39V [3], first compound 1.25 µg/mL, partner 0.0625 µg/mL | 0.959
S. pneumoniae D39V [3], first compound 1.25 µg/mL, partner 0.125 µg/mL | 0.825
S. pneumoniae D39V [3], first compound 2.145 µg/mL, partner 0.125 µg/mL | 0.895
S. pneumoniae D39V [3], first compound 2.145 µg/mL, partner 0.5 µg/mL | 0.0439
S. pneumoniae D39V [3], first compound 2.5 µg/mL, partner 0.03125 µg/mL | ≥ 1
S. pneumoniae D39V [3], first compound 2.5 µg/mL, partner 0.0625 µg/mL | 0.966
S. pneumoniae D39V [3], first compound 2.5 µg/mL, partner 0.125 µg/mL | 0.807
S. pneumoniae D39V [3], first compound 4.29 µg/mL, partner 0.125 µg/mL | ≥ 1
S. pneumoniae D39V [3], first compound 4.29 µg/mL, partner 0.5 µg/mL | 0.108
S. pneumoniae D39V [3], first compound 5 µg/mL, partner 0.03125 µg/mL | 0.986
S. pneumoniae D39V [3], first compound 5 µg/mL, partner 0.0625 µg/mL | 0.938
S. pneumoniae D39V [3], first compound 5 µg/mL, partner 0.125 µg/mL | 0.792

fitness, S. aureus Newman [2], one replicate
Conditions | first compound 0.781 µg/mL | first compound 1.562 µg/mL | first compound 3.124 µg/mL
partner 0.1875 µg/mL | ≥ 1 | ≥ 1 | 0.995
partner 0.375 µg/mL | ≥ 1 | 0.995 | 0.99
partner 0.75 µg/mL | ≥ 1 | 0.99 | ≥ 1

Conditions | Bliss interaction score
B. subtilis 168 | 0.0651
S. aureus DSM 20231 [4] | 0.033
S. aureus Newman [5] | 0.0696
S. pneumoniae D39V [6] | 0.123
